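Method: 48-hour compound exposure of cells in 96-well plates, five concentrations, linear interpolation of endpoints. TGI denotes the concentration required for complete inhibition of growth.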
Key:
Assay in all cases: growth of human tumour cells (NCI), 48 h
EKVX NSCLC = tested on: EKVX NSCLC
NCI/ADR-RES ovarian = tested on: NCI/ADR-RES ovarian
T-47D breast = tested on: T-47D breast
ACHN renal = tested on: ACHN renal
UACC-62 melanoma = tested on: UACC-62 melanoma
SN12C renal = tested on: SN12C renal
KM12 colon = tested on: KM12 colon
IGROV1 ovarian = tested on: IGROV1 ovarian
BT-549 breast = tested on: BT-549 breast
COLO 205 colon = tested on: COLO 205 colon
SNB-75 CNS = tested on: SNB-75 CNS
NCI-H23 lung = tested on: NCI-H23 lung
U251 CNS = tested on: U251 CNS
OVCAR-3 ovarian = tested on: OVCAR-3 ovarian
CAKI-1 renal = tested on: CAKI-1 renal
786-0 renal = tested on: 786-0 renal
HS 578T breast = tested on: HS 578T breast
DU-145 prostate = tested on: DU-145 prostate
MDA-MB-435 = tested on: MDA-MB-435
MOLT-4 leukemia = tested on: MOLT-4 leukemia
SF-539 CNS = tested on: SF-539 CNS
MDA-MB-231 breast = tested on: MDA-MB-231 breast
K-562 leukemia = tested on: K-562 leukemia
OVCAR-5 ovarian = tested on: OVCAR-5 ovarian
CCRF-CEM leukemia = tested on: CCRF-CEM leukemia
A498 renal = tested on: A498 renal
OVCAR-8 ovarian = tested on: OVCAR-8 ovarian
SF-295 CNS = tested on: SF-295 CNS
NCI-H460 lung = tested on: NCI-H460 lung
MCF7 breast = tested on: MCF7 breast
HCT-15 colon = tested on: HCT-15 colon
SK-MEL-2 melanoma = tested on: SK-MEL-2 melanoma
UO-31 renal = tested on: UO-31 renal
HL-60(TB) leukemia = tested on: HL-60(TB) leukemia
SF-268 CNS = tested on: SF-268 CNS
A549 NSCLC = tested on: A549 NSCLC
UACC-257 melanoma = tested on: UACC-257 melanoma
SK-MEL-28 melanoma = tested on: SK-MEL-28 melanoma
TK-10 renal = tested on: TK-10 renal
MDA-N = tested on: MDA-N
RXF 393 renal = tested on: RXF 393 renal
SNB-19 CNS = tested on: SNB-19 CNS
RPMI-8226 leukemia = tested on: RPMI-8226 leukemia
PC-3 prostate = tested on: PC-3 prostate
SW-620 colon = tested on: SW-620 colon
NCI-H226 lung = tested on: NCI-H226 lung
SK-MEL-5 melanoma = tested on: SK-MEL-5 melanoma
HOP-62 NSCLC = tested on: HOP-62 NSCLC
SR leukemia = tested on: SR leukemia
M14 melanoma = tested on: M14 melanoma
HT29 colon = tested on: HT29 colon
HCT-116 colon = tested on: HCT-116 colon
MALME-3M melanoma = tested on: MALME-3M melanoma
HCC-2998 colon = tested on: HCC-2998 colon
HOP-92 NSCLC = tested on: HOP-92 NSCLC
LOX IMVI melanoma = tested on: LOX IMVI melanoma
SK-OV-3 ovarian = tested on: SK-OV-3 ovarian
OVCAR-4 ovarian = tested on: OVCAR-4 ovarian
NCI-H522 lung = tested on: NCI-H522 lung

Measured: TGI

C=CCSc1nn(CC=C)cc2ncnc1-2
> 100 µM: EKVX NSCLC | NCI/ADR-RES ovarian | T-47D breast | ACHN renal | UACC-62 melanoma | SN12C renal | KM12 colon | IGROV1 ovarian | BT-549 breast | COLO 205 colon | SNB-75 CNS | NCI-H23 lung | U251 CNS | OVCAR-3 ovarian | CAKI-1 renal | 786-0 renal | HS 578T breast | DU-145 prostate | MDA-MB-435 | MOLT-4 leukemia | SF-539 CNS | MDA-MB-231 breast | K-562 leukemia | OVCAR-5 ovarian | CCRF-CEM leukemia | A498 renal | OVCAR-8 ovarian | SF-295 CNS | NCI-H460 lung | MCF7 breast | HCT-15 colon | SK-MEL-2 melanoma | UO-31 renal | HL-60(TB) leukemia | SF-268 CNS | A549 NSCLC | UACC-257 melanoma | SK-MEL-28 melanoma | TK-10 renal | MDA-N | RXF 393 renal | SNB-19 CNS | RPMI-8226 leukemia | PC-3 prostate | SW-620 colon | NCI-H226 lung | SK-MEL-5 melanoma | HOP-62 NSCLC | SR leukemia | M14 melanoma | HT29 colon | HCT-116 colon

O=C(O)/C(=C\c1ccccc1)Cc1ccccc1
> 100 µM: EKVX NSCLC | NCI/ADR-RES ovarian | MALME-3M melanoma | T-47D breast | ACHN renal | UACC-62 melanoma | SN12C renal | KM12 colon | IGROV1 ovarian | BT-549 breast | COLO 205 colon | SNB-75 CNS | HCC-2998 colon | NCI-H23 lung | U251 CNS | OVCAR-3 ovarian | CAKI-1 renal | 786-0 renal | HOP-92 NSCLC | LOX IMVI melanoma | HS 578T breast | DU-145 prostate | MDA-MB-435 | MOLT-4 leukemia | SF-539 CNS | MDA-MB-231 breast | K-562 leukemia | OVCAR-5 ovarian | CCRF-CEM leukemia | A498 renal | OVCAR-8 ovarian | SF-295 CNS | NCI-H460 lung | MCF7 breast | HCT-15 colon | SK-MEL-2 melanoma | UO-31 renal | HL-60(TB) leukemia | SF-268 CNS | A549 NSCLC | SK-OV-3 ovarian | UACC-257 melanoma | SK-MEL-28 melanoma | TK-10 renal | MDA-N | RXF 393 renal | SNB-19 CNS | RPMI-8226 leukemia | PC-3 prostate | SW-620 colon | NCI-H226 lung | SK-MEL-5 melanoma | HOP-62 NSCLC | M14 melanoma | OVCAR-4 ovarian | HT29 colon | HCT-116 colon | NCI-H522 lung

Source: PubChem BioAssay (NCI)
